Measured values taken from US12252503B2, “Cannabinoid derivatives” (priority 2019, dated 2025).

Columns and labels:
human CB1 receptor [1] = target: T1, human CB1 receptor (Homo sapiens, UniProt P21554); assay: CB1 radioligand competitive binding assay ([3H]CP 55,940 displacement); settings: for IC50: membranes of CHO-K1 cells expressing human CB1 receptor, 0.8 nM [3H]CP 55,940
T1 construct: host or cells: CHO-K1 (Chinese hamster ovary) cells, membrane preparation

human CB2 receptor = target: T2, human CB2 receptor (Homo sapiens, UniProt P34972); assay: CB2 radioligand competitive binding assay ([3H]CP 55,940 displacement); settings: for Selectivity CB2 (fold difference in selectivity between CB1 and CB2 binding): given in the column of the receptor with the higher binding affinity, 1.00 in both = about the same affinity; for IC50: membranes of CHO-K1 cells expressing human CB2 receptor, 0.6 nM [3H]CP55,940
T2 construct: host or cells: CHO-K1 (Chinese hamster ovary) cells, membrane preparation
Procedure: The membranes were prepared from CHO-K1 (Chinese hamster ovary) cells stably transfected with the human CB2 receptor (Cat. #ES-111-C; Perkin Elmer, Boston, MA). The cells were grown adherently and maintained in Ham's F12 medium containing 10% fetal bovine serum (FBS), penicillin, streptomycin and geneticin (G418) at 37° C. in a humid atmosphere of 5% CO2 following the manufacturer's instructions.
For membrane preparation the cells were washed with PBS and scraped off the plates in cold homogenization buffer (25 mM HEPES (pH 7.4), 2 mM EDTA) containing protease inhibitor cocktail (Sigma Cat. #P8340). The cell suspension was homogenized with a Pro-PK-01200D Polytron Homogenizer (Pro Scientific) and then centrifuged for 30 min at 120,000×g. The supernatant was discarded and the pellet was re-suspended in the homogenization buffer and stored at −80° C. until the time of use.
In this experiment, 3H radiolabeled CP 55,940, i.e. [3H]CP 55,940 (Perkin Elmer, Boston, MA), was used as a radioligand for the CB2 receptor to determine the binding affinity of compounds for the CB2 receptor (Scheme 4; above).
The competition binding experiments (single dose and dose-response) were performed by incubating 0.6 nM of [3H]CP55,940 (specific activity 101 Ci/mmol, Perkin Elmer) and different concentrations of compounds disclosed herein with membranes prepared as above from CHO-K1 cells expressing human CB2 receptor (1 μg of protein/well), 50 mM Tris-HCl (pH 7.4), 5 mM MgCl2, 1 mM CaCl2, and 2 mg/mL BSA.
For the single dose experiments, the compound stocks (usually 10 mM in DMSO) were diluted to working stocks in the binding buffer to give the final compound concentrations of 10 μM and 1 μM. For the dose-response experiments the test compounds were sequentially diluted to provide the desired concentration range for the IC50 determination. In each case the compounds were pre-incubated with the membrane for 20 min, before adding the radioligand.
After incubation with the radioligand for 60 min at 37° C., the incubation was terminated by rapid filtration of assay mixture through MultiScreen®HTS^+ 96-well filter plates (Millipore, Cat. #MSFCNXB), pre-soaked for 60 min with 50 mM Tris-HCl (pH 7.4) containing 0.33% polyethylenimine (PEI). The nonspecific binding (NSB) was determined in the presence of 10 μM unlabelled CP55,940. After drying the filter plate at 50° C. for at least 60 min, the filter-bound radioactivity was determined by scintillation spectrometry using the 1450 MicroBeta Plate Counter (Perkin Elmer, Boston, MA). From the dose-response experiments, the IC50 values were determined (see Table 1, CB2 IC50).

human CB1 receptor [2] = target: T1, human CB1 receptor; assay: PathHunter β-Arrestin functional assay, CB1 receptor, agonist mode; format: cell-based; settings: PathHunter CHO-K1 CNR1 β-Arrestin cells, normalized to CP55,940
human CB1 receptor [3] = target: T1, human CB1 receptor; assay: PathHunter β-Arrestin functional assay, CB1 receptor, antagonist mode; format: cell-based; settings: range stated for the group of compounds, read-out: IC50 towards human CB1 receptor in antagonist mode

T2 sequence (P34972 whole entry): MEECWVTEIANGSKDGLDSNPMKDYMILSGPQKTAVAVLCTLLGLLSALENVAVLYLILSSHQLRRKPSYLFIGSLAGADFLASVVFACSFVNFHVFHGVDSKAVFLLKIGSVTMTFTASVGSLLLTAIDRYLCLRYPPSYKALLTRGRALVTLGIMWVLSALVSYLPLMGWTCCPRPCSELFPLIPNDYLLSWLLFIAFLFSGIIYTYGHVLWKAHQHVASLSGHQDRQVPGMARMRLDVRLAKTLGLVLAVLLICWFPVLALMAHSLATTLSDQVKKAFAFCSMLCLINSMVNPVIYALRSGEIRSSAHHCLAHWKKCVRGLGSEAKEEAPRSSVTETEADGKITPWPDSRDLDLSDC
T1 sequence (P21554 whole entry): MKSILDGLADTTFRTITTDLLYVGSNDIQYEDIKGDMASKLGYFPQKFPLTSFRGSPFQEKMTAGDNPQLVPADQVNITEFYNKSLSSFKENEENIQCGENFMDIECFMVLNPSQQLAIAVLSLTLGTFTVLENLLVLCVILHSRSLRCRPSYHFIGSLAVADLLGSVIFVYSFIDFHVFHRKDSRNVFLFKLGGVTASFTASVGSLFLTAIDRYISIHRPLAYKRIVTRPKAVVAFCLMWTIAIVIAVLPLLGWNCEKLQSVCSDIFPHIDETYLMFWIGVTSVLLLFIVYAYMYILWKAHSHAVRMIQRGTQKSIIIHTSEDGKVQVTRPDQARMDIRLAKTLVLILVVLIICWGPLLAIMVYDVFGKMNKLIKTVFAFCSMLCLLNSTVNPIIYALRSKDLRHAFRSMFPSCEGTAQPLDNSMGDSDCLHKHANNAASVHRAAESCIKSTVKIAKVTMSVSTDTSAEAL

Row | SMILES | IC50 (human CB1 receptor [1]) | Selectivity CB2 (fold difference in selectivity between CB1 and CB2 binding) (human CB2 receptor) | IC50 (human CB2 receptor) | Selectivity CB1 (fold difference in selectivity between CB1 and CB2 binding) (human CB1 receptor [1]; given in the column of the receptor with the higher binding affinity, 1.00 in both = about the same affinity) | activity towards the human CB1 receptor in agonist mode (human CB1 receptor [2]) | IC50 (human CB1 receptor [3])
1 | CCCCCc1cc(OP(=O)(OCC)c2ccccc2)c(-c2cccc(C)c2)c(OP(=O)(OCC)c2ccccc2)c1 (stereo not drawn) [34′a, diethyl (3′-methyl-4-pentyl-[1,1′-biphenyl]-2,6-diyl) bis(phenylphosphonate)] | 1000 to 4990 nM | 1.95 fold | 1000 to 4990 nM |  |  | 
2 | CCCCCc1cc(O)c(C2C=C(C)CCC2)c(OP(=O)(Cc2ccccc2)OC)c1 (stereo not drawn) [Example 4c, 6-hydroxy-5′-methyl-4-pentyl-1′,2′,3′,4′-tetrahydro-[1,1′-biphenyl]-2-yl methyl benzylphosphonate] | 1000 to 4990 nM | 1.54 fold | 1000 to 4990 nM |  |  | 
3 | C=C(C)C1CCC(C)=CC1c1c(O)cc(CCCCC)cc1OP(=O)(Cc1ccccc1)OC (stereo not drawn) [Example 4d, 6-hydroxy-5′-methyl-4-pentyl-2′-(prop-1-en-2-yl)-1′,2′,3′,4′-tetrahydro-[1,1′-biphenyl]-2-yl methyl benzylphosphonate] | < 500 nM | 1.00 fold | < 500 nM | 1.00 fold | minimal to no activity | 780 to 3000 nM
4 | CCCCCc1cc(O)c(-c2cccc(C)c2)c(OP(=O)(OCC)c2ccccc2)c1 (stereo not drawn) [Example 34a, ethyl (6-hydroxy-3′-methyl-4-pentyl-[1,1′-biphenyl]-2-yl) phenylphosphonate] | 1000 to 4990 nM | 10.26 fold | < 500 nM |  |  | 
5 | CCCCCc1cc(O)c(C2C=C(C)CCC2)c(OP(=O)(OCC)c2ccccc2)c1 (stereo not drawn) [Example 34c, ethyl (6-hydroxy-5′-methyl-4-pentyl-1′,2′,3′,4′-tetrahydro-[1,1′-biphenyl]-2-yl) phenylphosphonate] | 1000 to 4990 nM | 1.69 fold | 1000 to 4990 nM |  |  | 
6 | CCCCCc1cc(O)c(-c2cccc(C)c2)c(OP(=O)(Cc2ccccc2)OCC)c1 (stereo not drawn) [Example 35a, ethyl (6-hydroxy-3′-methyl-4-pentyl-[1,1′-biphenyl]-2-yl) benzylphosphonate] |  |  | 1000 to 4990 nM |  |  | 
7 | CCCCCc1cc(O)c(C2C=C(C)CCC2)c(OP(=O)(Cc2ccccc2)OCC)c1 (stereo not drawn) [Example 35c, ethyl (6-hydroxy-5′-methyl-4-pentyl-1′,2′,3′,4′-tetrahydro-[1,1′-biphenyl]-2-yl) benzylphosphonate] | ≥ 5000 nM | 3.25 fold | 1000 to 4990 nM |  |  | 
8 | CCCCCCC(C)(C)c1cc(O)c(C2C=C(C)CCC2)c(OP(=O)(OC)c2ccccc2)c1 (stereo not drawn) [Example 37c, 6-hydroxy-5′-methyl-4-(2-methyloctan-2-yl)-1′,2′,3′,4′-tetrahydro-[1,1′-biphenyl]-2-yl methyl phenylphosphonate] |  |  |  |  | minimal to no activity | 780 to 3000 nM
9 | C=C(C)C1CCC(C)=CC1c1c(O)cc(C(C)(C)CCCCCC)cc1OP(=O)(OC)c1ccccc1 (stereo not drawn) [Example 37d, 6-hydroxy-5′-methyl-4-(2-methyloctan-2-yl)-2′-(prop-1-en-2-yl)-1′,2′,3′,4′-tetrahydro-[1,1′-biphenyl]-2-yl methyl phenylphosphonate] | 500 to 990 nM | 2.02 fold | < 500 nM |  | minimal to no activity | 780 to 3000 nM
10 | CCCCCCC(C)(C)c1cc(O)c(C2C=C(C)CCC2)c(OP(=O)(Cc2ccccc2)OC)c1 (stereo not drawn) [Example 38c, 6-hydroxy-5′-methyl-4-(2-methyloctan-2-yl)-1′,2′,3′,4′-tetrahydro-[1,1′-biphenyl]-2-yl methyl benzylphosphonate] | 1000 to 4990 nM | 4.96 fold | 500 to 990 nM |  | minimal to no activity | 780 to 3000 nM
11 | C=C(C)C1CCC(C)=CC1c1c(O)cc(C(C)(C)CCCCCC)cc1OP(=O)(Cc1ccccc1)OC (stereo not drawn) [Example 38d, 6-hydroxy-5′-methyl-4-(2-methyloctan-2-yl)-2′-(prop-1-en-2-yl)-1′,2′,3′,4′-tetrahydro-[1,1′-biphenyl]-2-yl methyl benzylphosphonate] | 500 to 990 nM | 1.82 fold | < 500 nM |  | minimal to no activity | 780 to 3000 nM
12 | C=C(C)C1CCC(C)=CC1c1c(O)cc(C(C)(C)CCCCCC)cc1OP(=O)(Cc1ccccc1)OCC (stereo not drawn) [Example 39d, ethyl (6-hydroxy-5′-methyl-4-(2-methyloctan-2-yl)-2′-(prop-1-en-2-yl)-1′,2′,3′,4′-tetrahydro-[1,1′-biphenyl]-2-yl) benzylphosphonate] | 500 to 990 nM | 1.10 fold | 500 to 990 nM |  |  | 
